Our source for the carcinogen call and TD50 values is PubChem BioAssay AID1745844 (Carcinogenic Potency Database (CPDB), 2022).

Calls of active or inactive are those of the source. The rule behind the calls is not given here.

The data set deals with rodent lifetime carcinogenesis bioassay, tumor incidence TD50. The data set can be described thus: chronic cancer bioassays in animals – CPDB, compiled studies (AID 1745844).

Regarding `O=NN(CCO)CCO`, the carcinogen call (rat, strain F344/DuCrj, males, in drinking water, site: liver, lesion: one or several types, types not named, dosed 40 weeks, study length 78 weeks) was “negative (inactive)”. Moreover, the TD50 reads like this: (rat, strain Fischer 344, females, in drinking water, site: esophagus, lesion: papilloma, dosed 55 weeks, study length 105 weeks) 2050 mg/kg/day; (rat, strain Fischer 344, females, in drinking water, site: kidney, lesion: one or several types, types not named, dosed 55 weeks, study length 105 weeks) 327 mg/kg/day; (rat, strain Fischer 344, females, in drinking water, site: kidney, lesion: several types, types named in the paper, dosed 75 weeks, study length 130 weeks) 42.2 mg/kg/day; (rat, strain Fischer 344, females, in drinking water, site: liver, lesion: cholangioadenoma/carcinoma, dosed 75 weeks, study length 130 weeks) 56.8 mg/kg/day; (rat, strain Fischer 344, females, in drinking water, site: liver, lesion: cholangiocarcinoma, dosed 55 weeks, study length 105 weeks) 197 mg/kg/day; (rat, strain Fischer 344, females, in drinking water, site: liver, lesion: hemangiosarcoma, dosed 50 weeks, study length 120 weeks) 45.4 mg/kg/day. The TD50 is, setting by setting: (rat, strain Fischer 344, females, in drinking water, site: liver, lesion: hepatocellular carcinoma, dosed 50 weeks, study length 120 weeks) 1.94 mg/kg/day; (rat, strain Fischer 344, females, in drinking water, site: liver, lesion: hepatocellular carcinoma, dosed 55 weeks, study length 105 weeks) 3.27 mg/kg/day; (rat, strain Fischer 344, females, in drinking water, site: liver, lesion: hepatocellular carcinoma, dosed 75 weeks, study length 130 weeks) 4.05 mg/kg/day; (rat, strain Fischer 344, females, in drinking water, site: liver, lesion: neoplastic nodule, dosed 75 weeks, study length 130 weeks) 2.93 mg/kg/day; (rat, strain Fischer 344, females, in drinking water, site: liver, lesion: several types, types named in the paper, dosed 75 weeks, study length 130 weeks) 1.9 mg/kg/day; (rat, strain Fischer 344, females, in drinking water, site: nasal cavity, lesion: adenocarcinoma, dosed 55 weeks, study length 105 weeks) 44.1 mg/kg/day. Moreover, the TD50 was 128 mg/kg/day (rat, strain Fischer 344, females, in drinking water, site: nasal cavity, lesion: olfactory carcinoma, dosed 55 weeks, study length 105 weeks); 4320 mg/kg/day (rat, strain Fischer 344, females, in drinking water, site: nasal cavity, lesion: squamous-cell carcinoma, dosed 55 weeks, study length 105 weeks); 432 mg/kg/day (rat, strain Fischer 344, males, in drinking water, site: esophagus, lesion: carcinoma, dosed 48 weeks, study length 95 weeks); 207 mg/kg/day (rat, strain Fischer 344, males, in drinking water, site: esophagus, lesion: papilloma, dosed 48 weeks, study length 95 weeks); 99.7 mg/kg/day (rat, strain Fischer 344, males, in drinking water, site: kidney, lesion: one or several types, types not named, dosed 48 weeks, study length 95 weeks); 19 mg/kg/day (rat, strain Fischer 344, males, in drinking water, site: kidney, lesion: several types, types named in the paper, dosed 75 weeks, study length 125 weeks). Also, the TD50 was 38.6 mg/kg/day (rat, strain Fischer 344, males, in drinking water, site: liver, lesion: cholangioadenoma/carcinoma, dosed 75 weeks, study length 125 weeks); 23.9 mg/kg/day (rat, strain Fischer 344, males, in drinking water, site: liver, lesion: cholangiocarcinoma, dosed 48 weeks, study length 95 weeks); 2.77 mg/kg/day (rat, strain Fischer 344, males, in drinking water, site: liver, lesion: hepatocellular carcinoma, dosed 48 weeks, study length 95 weeks); 9.03 mg/kg/day (rat, strain Fischer 344, males, in drinking water, site: liver, lesion: hepatocellular carcinoma, dosed 75 weeks, study length 125 weeks); 3.93 mg/kg/day (rat, strain Fischer 344, males, in drinking water, site: liver, lesion: neoplastic nodule, dosed 75 weeks, study length 125 weeks); 2.84 mg/kg/day (rat, strain Fischer 344, males, in drinking water, site: liver, lesion: several types, types named in the paper, dosed 75 weeks, study length 125 weeks). Besides, the TD50 was 15.5 mg/kg/day (rat, strain Fischer 344, males, in drinking water, site: nasal cavity, lesion: adenocarcinoma, dosed 48 weeks, study length 95 weeks); 50.4 mg/kg/day (rat, strain Fischer 344, males, in drinking water, site: nasal cavity, lesion: olfactory carcinoma, dosed 48 weeks, study length 95 weeks); 280 mg/kg/day (rat, strain Fischer 344, males, in drinking water, site: nasal cavity, lesion: squamous-cell carcinoma, dosed 48 weeks, study length 95 weeks); 55.6 mg/kg/day (rat, strain Sprague-Dawley, males, in drinking water, site: all sites, lesion: one or several types, types not named, dosed 162 weeks, study length 167 weeks); 7.93 mg/kg/day (rat, strain Sprague-Dawley, males, in drinking water, site: any site (literature study), lesion: benign tumor, dosed 162 weeks, study length 167 weeks); 23.5 mg/kg/day (rat, strain Sprague-Dawley, males, in drinking water, site: any site (literature study), lesion: malignant tumor, dosed 162 weeks, study length 167 weeks). Further, the TD50 reads like this: (rat, strain Sprague-Dawley, males, in drinking water, site: gastrointestinal tract, lesion: several types, types named in the paper, dosed 162 weeks, study length 167 weeks) 143 mg/kg/day; (rat, strain Sprague-Dawley, males, in drinking water, site: liver, lesion: cholangiocarcinoma, ductular, dosed 118 weeks, study length 147 weeks) 10700 mg/kg/day; (rat, strain Sprague-Dawley, males, in drinking water, site: liver, lesion: hemangioendothelioma, benign, dosed 162 weeks, study length 167 weeks) 126 mg/kg/day; (rat, strain Sprague-Dawley, males, in drinking water, site: liver, lesion: hepatocellular adenocarcinoma, dosed 118 weeks, study length 147 weeks) 9.51 mg/kg/day; (rat, strain Sprague-Dawley, males, in drinking water, site: liver, lesion: hepatocellular adenoma, dosed 162 weeks, study length 167 weeks) 347 mg/kg/day; (rat, strain Sprague-Dawley, males, in drinking water, site: liver, lesion: hepatocellular carcinoma, dosed 162 weeks, study length 167 weeks) 70.4 mg/kg/day. For the same compound, the TD50 (rat, strain Sprague-Dawley, males, in drinking water, site: liver, lesion: several types, types named in the paper, dosed 118 weeks, study length 147 weeks) was 8.23 mg/kg/day; the TD50 (rat, strain Sprague-Dawley, males, in drinking water, site: liver, lesion: several types, types named in the paper, dosed 162 weeks, study length 167 weeks) is 38.4 mg/kg/day; the TD50 (rat, strain Sprague-Dawley, males, in drinking water, site: nasal cavity, lesion: olfactory neuroepithelioma, dosed 118 weeks, study length 147 weeks) was 679 mg/kg/day; the TD50 (rat, strain Sprague-Dawley, males, in drinking water, site: nasal cavity, lesion: several types, types named in the paper, dosed 118 weeks, study length 147 weeks) was 168 mg/kg/day; the TD50 (rat, strain Sprague-Dawley, males, in drinking water, site: nasal cavity, lesion: squamous-cell carcinoma, dosed 118 weeks, study length 147 weeks) came out at 954 mg/kg/day; the TD50 (rat, strain Sprague-Dawley, males, in drinking water, site: nervous system, lesion: one or several types, types not named, dosed 162 weeks, study length 167 weeks) is 42.5 mg/kg/day.

Regarding `CC(=O)Nc1ccc(-c2ccc(F)cc2)cc1`, under “rat, strain Fischer 344, males, in feed, site: kidney, lesion: adenocarcinoma, dosed 52 weeks, study length 52 weeks”, the TD50 is 1.01 mg/kg/day.

For the compound `C=CCc1ccc(O)c(OC)c1`, the TD50 runs as follows: (mouse, strain B6C3F1, females, in feed, site: liver, lesion: hepatocellular adenoma + hepatocellular carcinoma + neoplastic nodule, dosed 103 weeks, study length 104 weeks) 2910 mg/kg/day; (mouse, strain B6C3F1, females, in feed, site: liver, lesion: hepatocellular adenoma + hepatocellular carcinoma, dosed 103 weeks, study length 104 weeks) 2910 mg/kg/day; (mouse, strain B6C3F1, females, in feed, site: lung, lesion: alveolar/bronchiolar adenoma + alveolar/bronchiolar carcinoma, dosed 103 weeks, study length 104 weeks) 25300 mg/kg/day; (mouse, strain B6C3F1, males, in feed, site: any site (literature study), lesion: several types, types named in the paper, dosed 103 weeks, study length 104 weeks) 1550 mg/kg/day; (mouse, strain B6C3F1, males, in feed, site: liver, lesion: hepatocellular adenoma + hepatocellular carcinoma + neoplastic nodule, dosed 103 weeks, study length 104 weeks) 451 mg/kg/day; (mouse, strain B6C3F1, males, in feed, site: liver, lesion: hepatocellular adenoma + hepatocellular carcinoma, dosed 103 weeks, study length 104 weeks) 451 mg/kg/day. The TD50 runs as follows: (mouse, strain B6C3F1, males, in feed, site: liver, lesion: hepatocellular adenoma, dosed 103 weeks, study length 104 weeks) 781 mg/kg/day; (mouse, strain B6C3F1, males, in feed, site: liver, lesion: hepatocellular carcinoma, dosed 103 weeks, study length 104 weeks) 710 mg/kg/day; (mouse, strain B6C3F1, males, in feed, site: thyroid gland, lesion: follicular-cell adenoma, dosed 103 weeks, study length 104 weeks) 8520 mg/kg/day; (rat, strain Fischer 344, males, in feed, site: any site (literature study), lesion: several types, types named in the paper, dosed 103 weeks, study length 104 weeks) 293 mg/kg/day; (rat, strain Fischer 344, males, in feed, site: lung, lesion: alveolar/bronchiolar adenoma + alveolar/bronchiolar carcinoma, dosed 103 weeks, study length 104 weeks) 424 mg/kg/day (inactive). Moreover, the carcinogen call reads like this: (mouse, strain Charles River CD1, females, in feed, site: liver, lesion: one or several types, types not named, dosed 50 weeks, study length 78 weeks) “negative (inactive)”; (mouse, strain Charles River CD1, females, in feed, site: lung, lesion: adenoma, dosed 50 weeks, study length 78 weeks) “negative (inactive)”; (rat, strain Fischer 344, females, in feed, site: any site (literature study), lesion: several types, types named in the paper, dosed 103 weeks, study length 104 weeks) “negative (inactive)”.
